Laboratory results published in ChEMBL document CHEMBL3871286, “Tetrahydroquinoline-based tricyclic amines as potent and selective agonists of the 5-HT2C receptor” (Bioorg Med Chem Lett, 2016).
pEC50, pKi: −log10 of the molar value.

Assays:
[1] = biological target: T1, 5-hydroxytryptamine receptor 2C (Homo sapiens, UniProt P28335); assay: Agonist activity at unedited 5-HT2C receptor (unknown origin) expressed in HEK293 cells assessed as [3H]inositol phosphate accumulation after 2 hrs by scintillation counting; type: functional, cell-based; settings: for EC50: read-out: pEC50 (converted)
T1 sequence (P28335 whole entry): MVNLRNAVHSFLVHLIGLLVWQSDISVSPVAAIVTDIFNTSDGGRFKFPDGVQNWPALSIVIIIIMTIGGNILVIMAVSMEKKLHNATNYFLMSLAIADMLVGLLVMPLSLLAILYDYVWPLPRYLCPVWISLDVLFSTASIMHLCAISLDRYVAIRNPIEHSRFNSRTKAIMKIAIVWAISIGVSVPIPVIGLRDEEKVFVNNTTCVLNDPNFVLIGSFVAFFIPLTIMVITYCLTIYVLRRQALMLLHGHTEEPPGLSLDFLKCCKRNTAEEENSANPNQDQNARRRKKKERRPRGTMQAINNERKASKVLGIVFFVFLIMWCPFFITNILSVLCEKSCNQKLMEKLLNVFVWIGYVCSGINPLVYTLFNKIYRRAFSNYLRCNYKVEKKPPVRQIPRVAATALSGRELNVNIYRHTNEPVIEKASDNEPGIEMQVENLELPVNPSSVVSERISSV

[2] = biological target: T2, 5-hydroxytryptamine receptor 2C (Homo sapiens) (UniProt P28335); assay: Agonist activity at unedited 5-HT2C receptor (unknown origin) expressed in HEK293 cells assessed as [3H]inositol phosphate accumulation at 10 uM after 2 hrs by scintillation counting relative to serotonin; type: functional, cell-based
T2 sequence (whole entry): T1 sequence (P28335 whole entry)

[3] = biological target: T3, 5-hydroxytryptamine receptor 2B (Homo sapiens, UniProt P41595); assay: Agonist activity at 5-HT2B receptor (unknown origin) expressed in HEK293 cells assessed as [3H]inositol phosphate accumulation after 2 hrs by scintillation counting; type: cell-based
[4] = biological target: 5-HT2B receptor (Homo sapiens, UniProt P41595); assay: Agonist activity at 5-HT2B receptor (unknown origin) expressed in HEK293 cells assessed as [3H]inositol phosphate accumulation at 10 uM after 2 hrs by scintillation counting relative to serotonin; type: cell-based; settings: HEK293 cells expressing 5-HT2B receptor
[5] = biological target: T1, 5-hydroxytryptamine receptor 2C; assay: Displacement of [125I]DOI from recombinant human 5-HT2C receptor expressed in HEK293 cell membranes after 1 hr by scintillation counting
[6] = biological target: T3, 5-hydroxytryptamine receptor 2B; assay: Displacement of [125I]DOI from recombinant human 5-HT2B receptor expressed in HEK293 cell membranes after 1 hr by scintillation counting
[7] = biological target: T4, 5-hydroxytryptamine receptor 2A (Homo sapiens, UniProt P28223); assay: Agonist activity at 5-HT2A receptor (unknown origin) expressed in HEK293 cells assessed as [3H]inositol phosphate accumulation after 2 hrs by scintillation counting; type: cell-based
[8] = biological target: 5-HT2A receptor (Homo sapiens, UniProt P28223); assay: Agonist activity at 5-HT2A receptor (unknown origin) expressed in HEK293 cells assessed as [3H]inositol phosphate accumulation at 10 uM after 2 hrs by scintillation counting relative to serotonin; type: cell-based; settings: HEK293 cells expressing 5-HT2A receptor
[9] = biological target: T4, 5-hydroxytryptamine receptor 2A; assay: Displacement of [125I]DOI from recombinant human 5-HT2A receptor expressed in HEK293 cell membranes after 1 hr by scintillation counting
[10] = tested on: Rattus norvegicus; assay: Antiobesity activity in Sprague-Dawley rat assessed as reduction in food intake at 1 mg/kg, po administered via oral gavage 30 mins prior to food presentation measured 60 mins post drug administration; type: functional; parameters: scale not given: the % may be the effect or the level left
[11] = tested on: Rattus norvegicus; assay: Antiobesity activity in Sprague-Dawley rat assessed as reduction in food intake at 3 mg/kg, po administered via oral gavage 30 mins prior to food presentation measured 60 mins post drug administration; type: functional; parameters: scale not given: the % may be the effect or the level left
[12] = tested on: Rattus norvegicus; assay: Antiobesity activity in Sprague-Dawley rat assessed as reduction in food intake at 10 mg/kg, po administered via oral gavage 30 mins prior to food presentation measured 60 mins post drug administration; type: functional; parameters: scale not given: the % may be the effect or the level left
[13] = tested on: Rattus norvegicus; assay: Antiobesity activity in Sprague-Dawley rat assessed as reduction in food intake at 5 mg/kg, po administered via oral gavage 30 mins prior to food presentation measured 60 mins post drug administration; type: functional; parameters: scale not given: the % may be the effect or the level left

5-HT2A receptor, sequence (P28223 whole entry): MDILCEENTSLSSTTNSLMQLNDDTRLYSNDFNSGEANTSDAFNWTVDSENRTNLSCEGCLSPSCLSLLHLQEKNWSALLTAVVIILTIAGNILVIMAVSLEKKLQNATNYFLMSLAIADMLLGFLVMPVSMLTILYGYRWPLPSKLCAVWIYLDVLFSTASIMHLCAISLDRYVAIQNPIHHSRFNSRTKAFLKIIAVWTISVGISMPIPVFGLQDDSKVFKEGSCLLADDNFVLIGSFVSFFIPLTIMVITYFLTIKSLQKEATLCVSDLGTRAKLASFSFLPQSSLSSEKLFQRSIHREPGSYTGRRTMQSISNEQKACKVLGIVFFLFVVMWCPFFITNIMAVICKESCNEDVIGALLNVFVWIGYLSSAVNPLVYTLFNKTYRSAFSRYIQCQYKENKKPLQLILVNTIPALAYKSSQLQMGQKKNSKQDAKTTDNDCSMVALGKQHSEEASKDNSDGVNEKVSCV
T4 sequence (P28223 whole entry): as above
5-HT2B receptor, sequence (P41595 whole entry): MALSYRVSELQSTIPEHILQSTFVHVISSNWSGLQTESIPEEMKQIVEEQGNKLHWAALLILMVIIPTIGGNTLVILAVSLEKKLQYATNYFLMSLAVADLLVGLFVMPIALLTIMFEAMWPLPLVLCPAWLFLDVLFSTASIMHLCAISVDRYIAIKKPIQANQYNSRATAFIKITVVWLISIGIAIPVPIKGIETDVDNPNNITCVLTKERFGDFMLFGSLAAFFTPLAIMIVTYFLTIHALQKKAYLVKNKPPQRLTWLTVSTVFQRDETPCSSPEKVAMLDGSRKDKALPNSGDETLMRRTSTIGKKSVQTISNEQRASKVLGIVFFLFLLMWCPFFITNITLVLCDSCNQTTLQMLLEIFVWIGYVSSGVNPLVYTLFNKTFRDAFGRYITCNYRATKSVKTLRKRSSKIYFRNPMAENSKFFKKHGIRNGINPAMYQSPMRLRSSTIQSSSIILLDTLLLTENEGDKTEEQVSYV
T3 sequence (P41595 whole entry): as above

Structure (SMILES)	EC50 [1]	Emax [2]	pEC50 [3]	Emax at 2 h, 10 µM [4]	further results
CCCc1cccc2c1CCC1CNCCN21 (stereo unspecified)	0.2 nM	101%	6.70	80%	pKi [5]: 9.40; pKi [6]: 7.60; pEC50 [7]: 6.30; Emax at 2 h, 10 µM [8]: 104%; pKi [9]: 8.20; Activity [10]: 66%; Activity [11]: 99%
c1cc(CC2CCC2)c2c(c1)N1CCCNCC1CC2 (stereo unspecified)	126 nM	116%	< 6.00	–	–
c1ccc2c(c1)CC[C@@H]1CCNCCCN21	63.1 nM	86%	6.30	53%	–
COc1ccc2c(c1Cl)N1CCCNC[C@H]1CC2	158 nM	72%	8.10	7%	–
CC1(C)Cc2cccc(Cl)c2N2CCNCC21 (stereo unspecified)	> 10000 nM	–	7.00	84%	pKi [5]: 6.10; pKi [6]: 8.20; pEC50 [7]: < 5.00; pKi [9]: 5.70
Clc1cccc2c1N1CCCNCCC1CC2 (stereo unspecified)	25.1 nM	85%	7.00	20%	–
CCSc1cccc2c1CCC1CNCCN21 (stereo unspecified)	0.316 nM	101%	7.10	46%	–
c1ccc(Cc2cccc3c2CCC2CNCCN32)cc1 (stereo unspecified)	1.58 nM	104%	5.60	20%	pKi [5]: 9.20; pKi [6]: 7.40; pEC50 [7]: 6.90; Emax at 2 h, 10 µM [8]: 85%; pKi [9]: 8.80
c1ccc(Oc2cccc3c2CCC2CNCCN32)cc1 (stereo unspecified)	100 nM	112%	5.20	94%	–
Clc1ccc2c(c1)CCC1CCNCCCN21 (stereo unspecified)	200 nM	83%	6.20	71%	–
c1ccc(-c2cccc3c2CCC2CNCCN32)cc1 (stereo unspecified)	126 nM	97%	5.60	72%	–
COc1cccc2c1N1CCCNC[C@H]1CC2	31.6 nM	17%	7.00	55%	–
c1cc(OC2CCC2)c2c(c1)N1CCNCC1CC2 (stereo unspecified)	20 nM	98%	6.10	9%	–
Clc1cccc(N2CCNCC2)c1 [CHLOROPHENYLPIPERAZINE]	–	90%	–	22%	Emax at 2 h, 10 µM [8]: 12%
c1cc(C2CCC2)c2c(c1)N1CCNCC1CC2 (stereo unspecified)	3.16 nM	110%	7.40	112%	–
c1cc(Cc2ccc3c(c2)OCO3)c2c(c1)N1CCNCC1CC2 (stereo unspecified)	6.31 nM	100%	5.40	26%	pKi [5]: 9.10; pKi [6]: 6.90; pEC50 [7]: 6.70; Emax at 2 h, 10 µM [8]: 64%; pKi [9]: 8.80
Fc1ccc2c(c1)N1CCNCC1CC2 (stereo unspecified)	0.794 nM	100%	7.50	38%	–
c1ccc2c(c1)CC[C@@H]1CNCCN21	2.51 nM	97%	7.20	28%	–
Fc1ccc2c(c1Cc1ccccc1)CC[C@@H]1CNCCCN21	20 nM	108%	5.10	71%	–
Fc1ccc2c(c1Cc1ccccc1)CCC1CNCCN21 (stereo unspecified)	1 nM	102%	6.20	32%	pKi [5]: 9.40; pKi [6]: 7.90; pEC50 [7]: 7.00; Emax at 2 h, 10 µM [8]: 114%; pKi [9]: 9.20
c1ccc2c(c1)CCC1CCNCCCN21 (stereo unspecified)	–	99%	6.00	60%	pEC50 ([1]; read-out: EC50): 6.89

Structure (SMILES)	EC50 [1]	Emax [2]	pEC50 [3]	Emax at 2 h, 10 µM [4]	further results
CCCc1ccc2c(c1)N1CCNCC1CC2 (stereo unspecified)	63.1 nM	87%	6.70	19%	–
Fc1ccc2c(c1)CC[C@@H]1CNCCCN21	25.1 nM	94%	6.20	59%	–
COc1cc2c(c(Cl)c1Cl)N1CCCNC[C@H]1CC2	10 nM	80%	–	< 5%	–
c1cc(CC2CCC2)c2c(c1)N1CCNCC1CC2 (stereo unspecified)	3.16 nM	106%	5.70	31%	pKi [5]: 9.20; pKi [6]: 7.20; pEC50 [7]: 5.70; Emax at 2 h, 10 µM [8]: 135%; pKi [9]: 8.10; Activity [10]: 27%; Activity [12]: 99%; Activity [13]: 63%
Cc1cccc2c1N1CCNCC1CC2 (stereo unspecified)	63.1 nM	86%	7.30	10%	–
Fc1ccc2c(c1Cl)N1CCNCC1CC2 (stereo unspecified)	6.31 nM	94%	8.70	12%	–
c1csc(Cc2cccc3c2CCC2CNCCN32)c1 (stereo unspecified)	0.794 nM	106%	6.40	24%	pKi [5]: 9.50; pKi [6]: 7.60; pEC50 [7]: 7.10; Emax at 2 h, 10 µM [8]: 94%; pKi [9]: 7.60
COc1ccc2c(c1)N1CCCNC[C@H]1CC2	79.4 nM	95%	6.20	37%	–
CCCc1ccc2c(c1)CCC1CNCCN21 (stereo unspecified)	20 nM	100%	6.20	9%	–
c1ccc2c(c1)CC[C@H]1CCNCCCN21	> 10000 nM	–	< 5.00	–	–
Cc1cccc2c1CCC1CNCCN21 (stereo unspecified)	2 nM	108%	7.50	65%	–
COc1cc2c(cc1Cl)N1CCCNC[C@H]1CC2	39.8 nM	91%	6.80	23%	–
COc1cccc2c1CC[C@@H]1CNCCCN21	1000 nM	92%	6.40	74%	–
COc1ccc2c(c1)CC[C@@H]1CNCCCN21	631 nM	80%	5.90	76%	–
COCc1cccc2c1CCC1CNCCN21 (stereo unspecified)	20 nM	113%	5.90	77%	–
CC1(C)CC2CNCCN2c2ccccc21 (stereo unspecified)	1260 nM	84%	< 5.00	–	–
COc1cc2c(cc1Cc1ccccc1)CC[C@@H]1CNCCCN21	> 1000 nM	–	< 6.00	–	–
CC1(C)Cc2ccccc2N2CCNCC21 (stereo unspecified)	> 1000 nM	–	< 6.00	–	–
COc1cc2c(cc1Cl)CC[C@@H]1CNCCCN21	3.98 nM	85%	7.20	84%	–
Fc1ccc2c(c1)CCC1CNCCN21 (stereo unspecified)	3.16 nM	96%	6.90	44%	–
COc1ccc2c(c1)CCC1CNCCN21 (stereo unspecified)	251 nM	101%	6.10	57%	–
